From US10640507B2, “PBD antibacterial agents” (KING'S COLLEGE LONDON, priority 2015, dated 2020)
In brackets after ≈: the same amount, converted by molar mass. Like-named read-outs stand apart in the source and are kept apart here.

Key:
[1] = test system: A. baumannii AYE; assay: General MIC protocol, Gram negative; assay type: cell-based; conditions: Acinetobacter baumannii
Procedure, shortened: (§1)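 Overnight cultures diluted to 1×10^6/ml (OD0.01) in TSB and mixed 1:1 with twofold compound dilutions, giving 5×10^5/ml and a 32 μg/ml top concentration. 20 h, 37° C; growth read as absorbance at 600 nm.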

[2] = test system: A. baumannii NCTC 17978; assay: General MIC protocol, Gram negative; assay type: cell-based; conditions: Acinetobacter baumannii, NCTC17978
Procedure, shortened: as §1

[3] = test system: K. pneumonia KP16; assay: General MIC protocol, Gram negative; assay type: cell-based; conditions: Klebsiella pneumoniae, KP16
Procedure, shortened: as §1

[4] = test system: K. pneumonia M6; assay: General MIC protocol, Gram negative; assay type: cell-based; conditions: Klebsiella pneumoniae; KP-M6
Procedure, shortened: as §1

[5] = test system: K. pneumonia NCTC 13368; assay: General MIC protocol, Gram negative; assay type: cell-based; conditions: Klebsiella pneumoniae, NCTC13368
Procedure, shortened: as §1

[6] = test system: K. pneumonia NCTC 13438; assay: General MIC protocol, Gram negative; assay type: cell-based; conditions: Klebsiella pneumoniae, NCTC13438
Procedure, shortened: as §1

[7] = test system: K. pneumonia NCTC 13443; assay: General MIC protocol, Gram negative; assay type: cell-based; conditions: Klebsiella pneumoniae, NCTC13443
Procedure, shortened: as §1

[8] = test system: K. pneumonia NCTC 51851; assay: General MIC protocol, Gram negative; assay type: cell-based; conditions: Klebsiella pneumoniae, NCTC51851
Procedure, shortened: as §1

[9] = test system: P. aeruginosa NCTC 13437; assay: General MIC protocol, Gram negative; assay type: cell-based
Procedure, shortened: as §1

[10] = test system: K. pneumonia - M6; assay: Time kill kinetics; assay type: cell-based; conditions: drug at 4×MIC
Description: 1. Grow bacteria overnight.
2. Subculture into an autoclaved conical flask containing 10 ml of TSB to an OD of 0.01 (˜1×10^7 Cfu/ml for KP-M6).
4. Take aliquots (100 μl) at timepoints (0, 1, 2, 4, 6, 24 hours) and carry out a serial dilution in PBS (to remove drug and to dilute bacteria to countable numbers).
5. Use the serial dilution to perform a Miles Misra—i.e. Add 3×10 μl spots of each dilution onto an agar plate. Incubate overnight and count colonies on spots in the morning.
6. Control: Subculture bacteria alongside samples but with no antibiotic added. Take aliquots from this at every time point (0, 1, 2, 4, 6, 24 hours) and perform Miles Misra on these too (as detailed in points 4 and 5 above).
7. After the first experiment, if the counts seen on Miles-Misra were zero, total viable counts were determined by spreading 200 μl in a streak down the centre of a TSB agar plate, waiting for the liquid to be absorbed and then spreading over the plate and checking for growth inhibition at the sight of the original streak.
8. The compound is considered bactericidal if the inoculum was reduced >3 log10 CFU/ml and bacteriostatic if inoculum was reduced by 0-3 log10 CFU/ml.
Three measurements were taken for each compound at each time point. These measurements were averaged and the standard deviation was also calculated.

[11] = test system: NCTC 13424; assay: Effect of efflux pump inhibitors (EPIs) on MIC; assay type: cell-based, A. bauamnnii
Description: 1. Grow up cultures of bacterial strains to be tested overnight.
2. Dilute down overnight cultures to concentration of 1×10^6 bacteria/ml (OD0.01) in Tryptic soy broth (TSB).
3. Add 100 μl of TSB media to column 2-column 12 in 96 well plate (keeping column 1 clear).
4. Make up compound to a concentration of 64 μg/ml in water.
5. Add 100 μl of antibiotic solution to the 1st and 2nd columns.
6. Using a multichannel pipette take 100 μl from the 2nd column wells and pipette into 3rd column wells and repeat down the 96 well plate (remember to include controls i.e. uninfected media and media with no antibiotic).
7. To each well (except uninfected control row H) add 50 μl/well of EPI at 4× final concentration in TSB.
9. In wells used to test the effect of the EPI carbonyl cyanide 3-chlorophenylhydrazone (CCCP) the CCCP is added at 10 μg/ml final concentration.
10. In wells used to test the effect of the EPI phenylalanine-arginine β-naphthylamide (PABN) the PABN is added at 25 μg/ml final concentration.
11. In wells used to test the effect of the PABN+Mg, the PABN is added at 25 μg/ml final concentration, with 1 mM MgSO4 in TSB.
12. Wrap plate with parafilm to prevent evaporation.
13. Leave at desired temperature (37° C. unless specified elsewhere) for 20 hours.
14. Next day check plates for growth and measure optical density (i.e. absorbance) at a wavelength of 600 nm (OD600).
Compound KMR-14-33 was tested against a range of bacterial species using the above protocol. Compound PP-A148 was also tested against a more limited range of bacterial species using the above protocol. For KMR-14-33 measurements were carried out for the compound alone, for the compound plus CCCP, for the compound plus PABN and for the compound plus PABN and plus Mg. For PP-A148 measurements were carried out for the compound alone and for the compound plus PABN.

[12] = Pseudomonas aeruginosa, NCTC13437

COc1cc2c(cc1OCCCC(=O)Nc1cc(C(=O)Nc3ccc4sc(C(=O)N(C)C)cc4c3)n(C)c1)N=C[C@@H]1CCCN1C2=O [KMR-14-33, (S)—N-(2-(dimethylcarbamoyl)benzo[b]thiophen-5-yl)-4-(4-((7-methoxy-5-oxo-2,3,5,11a-tetrahydro-1H-benzo[e]pyrrolo[1,2-a][1,4]-diazepin-8-yl)oxy)butanamido)-1-methyl-1H-pyrrole-2-carboxamide]
MIC [1]: 1 µg/mL (≈ 1.52 µM)
MIC [2]: 0.5 µg/mL (≈ 0.761 µM)
MIC [3]: 0.25 µg/mL (≈ 0.381 µM)
MIC [4]: 1 µg/mL (≈ 1.52 µM)
MIC [5]: 2 µg/mL (≈ 3.05 µM)
MIC [6]: 0.5 µg/mL (≈ 0.761 µM)
MIC [7]: 2 µg/mL (≈ 3.05 µM)
MIC [8]: 2 µg/mL (≈ 3.05 µM)
MIC ([9]; NCTC 13437, KMR-14-33 alone): 32 µg/mL (≈ 48.7 µM)
MIC [9, 12]: > 32 µg/mL
Average (Log CFU/ml) ([10]; time-point 1 hours): 2667 CFU/ml
n = 1 (Log CFU/ml) ([10]; time-point 1 hours): 3000 CFU/ml
n = 2 (Log CFU/ml) ([10]; time-point 1 hours): 3000 CFU/ml
n = 3 (Log CFU/ml) ([10]; time-point 1 hours): 2000 CFU/ml
Average (Log CFU/ml) ([10]; time-point 2 hours): 0 CFU/ml
n = 2 (Log CFU/ml) ([10]; time-point 2 hours): 0 CFU/ml
n = 3 (Log CFU/ml) ([10]; time-point 2 hours): 0 CFU/ml
viable count ([10]; time-point 2 hours): 0 CFU/mL
Average (Log CFU/ml) ([10]; time-point 4 hours): 0 CFU/ml
n = 2 (Log CFU/ml) ([10]; time-point 4 hours): 0 CFU/ml
n = 3 (Log CFU/ml) ([10]; time-point 4 hours): 0 CFU/ml
viable count ([10]; time-point 4 hours): 0 CFU/mL
Average (Log CFU/ml) ([10]; time-point 6 hours): 0 CFU/ml
n = 2 (Log CFU/ml) ([10]; time-point 6 hours): 0 CFU/ml
n = 3 (Log CFU/ml) ([10]; time-point 6 hours): 0 CFU/ml
viable count ([10]; time-point 6 hours): 0 CFU/mL
Average (Log CFU/ml) ([10]; time-point 24 hours): 0 CFU/ml
n = 2 (Log CFU/ml) ([10]; time-point 24 hours): 0 CFU/ml
n = 3 (Log CFU/ml) ([10]; time-point 24 hours): 0 CFU/ml
viable count ([10]; time-point 24 hours): 0 CFU/mL
+PABN MIC ([11]; NCTC 13424, PABN at 25 μg/ml): 0.125 µg/mL
+PABN + Mg MIC ([11]; NCTC 13424, PABN at 25 μg/ml with 1 mM MgSO4): 0.25 µg/mL
MIC ([11]; read-out: +CCCP MIC): 0.25 µg/mL (≈ 0.381 µM)
MIC ([11]; read-out: Control with no EPI MIC): 0.5 µg/mL (≈ 0.761 µM)

COc1cc2c(cc1OCCCC(=O)Nc1cc(C(=O)Nc3ccc4oc(C(=O)N5CCSCC5)cc4c3)n(C)c1)N=C[C@@H]1CCCN1C2=O [PP-A148, (S)-4-(4-((7-methoxy-5-oxo-2,3,5,11a-tetrahydro-1H-benzo-[e]pyrrolo[1,2-a][1,4]diazepin-8-yl)oxy)butanamido)-1-methyl-N-(2-(thiomorpholine-4-carbonyl)benzofuran-5-yl)-1H-pyrrole-2-carboxamide]
MIC [1]: 2 µg/mL (≈ 2.86 µM)
MIC [2]: 2 µg/mL (≈ 2.86 µM)
MIC [3]: 0.25 to 0.5 µg/mL (≈ 0.358 to 0.716 µM)
MIC [4]: 0.25 to 0.5 µg/mL (≈ 0.358 to 0.716 µM)
MIC [5]: 16 to 32 µg/mL (≈ 22.9 to 45.8 µM)
MIC [6]: 4 to 8 µg/mL (≈ 5.72 to 11.4 µM)
MIC [7]: 16 µg/mL (≈ 22.9 µM)
MIC [8]: 4 µg/mL (≈ 5.72 µM)
MIC [9, 12]: 16 µg/mL (≈ 22.9 µM)
